Data from patent US6838084B1, “Cytotoxic T-cell epitopes of the papilloma virus l1-protein and use thereof in diagnosis and therapy” (priority 1999, dated 2005).

Experiments:
[1] = test system: BLCL cells of an HLA A24-positive donor; assay: Lysis of BLCL cells loaded with peptide 9 (51Cr release); assay type: cell-based, human
Protocol: The target cells were lysed by T cells stimulated with peptides 1-43 (=effector cells) . […] The % values were calculated according to the formula given in Example 7.
BLCL cells of an HLA A24-positive donor were incubated with […] at 37° C. for one hour, washed three times with medium and divided into 2 aliquots. 10 μg/ml of peptide 9 were added to one aliquot of the cells, and the other aliquot served as a negative control in the absence of a peptide. Subsequently, in each case 2000 cells (=target cells). were added to increasing amounts of T cells (=effector cells) in a total volume of 150 μl. The T cells had been stimulated previously over 5 weeks with a mixture of 43 peptides (peptides 1-43, 1 μg/ml each). Reaction mixtures for spontaneous and maximum cell lysis were set up in parallel. For spontaneous lysis, target cells which were incubated in medium were used, and for maximum lysis target cells which were incubated with 0.5% Triton were used. The mixtures were incubated at 37° C. for 5 h. 50 μl of mixture supernatant were applied to Luma plates and dried at room temperature overnight. On the following morning, the amount of radioactive ^51Cr was determined with the aid of a Canberra-Packerd B-plate counter (counts) and compared to the maximal lysed cells of the Triton mixture. The percentage of specific lysis was determined according to the formula: x=100·(counts−spontaneous counts)/(maximal counts−spontaneous counts).

CVLP-stimulated T cells = assay: Restimulation of CVLP-stimulated T cells with peptide pools, HLA A24-positive donor; assay type: cell-based, human; settings: common to pools A and 2
Protocol: The name of the particular peptide pool with which the BLCLs were loaded is listed from left to right. “None” represents BLCLs which were incubated only with buffer.
The 20 mer peptides 1 to 51 were combined in peptide pools A to H and 1 to 7 according to the matrix
The T cells of an HLA A1-positive donor were then restimulated in 100 μl of medium at 37° C. with the peptide pools in the presence of 10 IU/ml IL2. In this connection, such amounts of peptide pools were used that for each individual peptide 1 μg/ml was added. Cells incubated only with buffer served as a negative control.
After one hour, 1 μl of Golgi Plug was added. The cells were incubated at 37° C. for a further 5 hours. The cells were then fixed and permeabilized, and stained with α-hum CD8/PE, with α-hum CD4/Cychrome and with α-hum γ-interferon/FITC. The cells were examined in a FACScan calibur with respect to their label and the data were analyzed with the aid of Cellquest software.
Furthermore, the T cells of an HLA A24-positive donor were restimulated with the peptide pools as above and analyzed.

SFYNPDTQRLVWACVGVEVG [Peptide 9]
lysis of peptide-loaded BLCL target cells by T cells (51Cr release) ([1]; 10 μg/ml peptide, effector T cells stimulated 5 weeks with peptides 1-43, 5 h, FIG. 8): lyse BLCL cells loaded with peptide 9 effectively
Epitop-Information (HLA restriction) ([1]; Table 2): HLA A24 restr.
Epitop-Information (epitope type) ([1]; Table 2): cytotoxic epitope
epitope classification ([1]; conclusion from FIG. 8): HLA A24-restricted cytotoxic T-cell epitope
peptide responsible for restimulation, deduced from pool matrix (CVLP-stimulated T cells): in all probability responsible for restimulation of CVLP-stimulated T cells
